Results: ChEMBL document CHEMBL1817607, “Synthesis and antiplasmodial activity of bicyclic dioxanes as simplified dihydroplakortin analogues” (J Med Chem, 2011)

Assays:
Plasmodium falciparum [1] = test: Antiplasmodial activity against chloroquine-sensitive Plasmodium falciparum D10 infected in human type A-positive RBC assessed as inhibition of parasite LDH activity after 72 hrs by spectrophotometrically; assay type: functional, organism-based; conditions: D10, 72 h
Plasmodium falciparum [2] = test: Antiplasmodial activity against chloroquine-resistant Plasmodium falciparum W2 infected in human type A-positive RBC assessed as inhibition of parasite LDH activity after 72 hrs by spectrophotometric analysis; assay type: functional, organism-based; conditions: W2, 72 h

Row | Compound | IC50 (Plasmodium falciparum [1]) | IC50 (Plasmodium falciparum [2])
1 | CCC(CC)C[C@@]1(C)C[C@@H](CC)[C@@H](CC(=O)OC)OO1 | 0.89 µM | 0.64 µM
2 | CCC(CC)C[C@]1(C)C[C@@H](CC)[C@@H](CC(=O)OC)OO1 | 2.4 µM | 0.87 µM
3 | CCC(CC)C[C@@]1(C)C[C@@H](CC)[C@@H]([C@H](O)CO)OO1 | 1.2 µM | 0.84 µM
4 | CCC(CC)C[C@]1(C)C[C@@H](CC)[C@@H]([C@H](O)CO)OO1 | 2.4 µM | 1.3 µM
5 | CC[C@@H]1CC(C)(C)OO[C@@H]1[C@H](O)CO | > 10 µM | > 10 µM
6 | CC[C@@H]1CC(C)(C)OO[C@@H]1[C@H](O)COC(C)=O | > 10 µM | > 10 µM
7 | CCCCC1(C)C[C@]2(C)CCO[C@@H]2OO1 (mixture of isomers) | 2.9 µM | 1.4 µM
8 | CCCCCC1(C)C[C@]2(C)CCO[C@@H]2OO1 (mixture of isomers) | 2.9 µM | 1.5 µM
9 | CCC(CC)CC1(C)C[C@]2(C)CCO[C@@H]2OO1 (mixture of isomers) | 0.76 µM | 0.39 µM
10 | CC1(CC2CCCC2)C[C@]2(C)CCO[C@@H]2OO1 (mixture of isomers) | 0.55 µM | 0.34 µM
11 | CC1(CC2CCCCC2)C[C@]2(C)CCO[C@@H]2OO1 (mixture of isomers) | 0.49 µM | 0.36 µM
12 | CC1(CC2C3CC4CC(C3)CC2C4)C[C@]2(C)CCO[C@@H]2OO1 (mixture of isomers) | 0.23 µM | 0.15 µM
13 | CCCCC1(C)C[C@@H]2CCO[C@@H]2OO1 (mixture of isomers) | > 10 µM | > 10 µM
14 | CCCCCC1(C)C[C@@H]2CCO[C@@H]2OO1 (mixture of isomers) | > 10 µM | > 10 µM
15 | CCC(CC)CC1(C)C[C@@H]2CCO[C@@H]2OO1 (mixture of isomers) | > 10 µM | 8.6 µM
16 | CC(C)c1ccccc1[C@H]1C[C@]2(C)CCO[C@@H]2OO1 (racemic) | 8.3 µM | 4.6 µM
17 | CC1(C)C[C@]2(C)CCO[C@@H]2OO1 (racemic) | > 10 µM | > 10 µM
18 | CC[C@@]12CCO[C@@H]1OOC(C)(C)C2 (racemic) | > 10 µM | > 10 µM
19 | CC(C)C[C@@]12CCO[C@@H]1OOC(C)(C)C2 (racemic) | > 10 µM | > 10 µM
20 | C[C@@]12CCO[C@@H]1OO[C@@H](c1ccccc1)C2 (racemic) | > 20 µM | > 20 µM
21 | Cc1ccccc1[C@H]1C[C@]2(C)CCO[C@@H]2OO1 (racemic) | > 20 µM | 11 µM
22 | CCc1ccccc1[C@H]1C[C@]2(C)CCO[C@@H]2OO1 (racemic) | 15 µM | 7.7 µM
23 | CC(C)Cc1ccccc1[C@H]1C[C@]2(C)CCO[C@@H]2OO1 (racemic) | 13 µM | 5.7 µM
24 | C[C@@]12CCO[C@@H]1OO[C@H](c1ccccc1)C2 (racemic) | > 20 µM | > 20 µM
25 | Cc1ccccc1[C@@H]1C[C@]2(C)CCO[C@@H]2OO1 (racemic) | > 20 µM | > 20 µM
26 | CCc1ccccc1[C@@H]1C[C@]2(C)CCO[C@@H]2OO1 (racemic) | > 20 µM | > 20 µM
27 | CC1(C)C[C@@H]2CCO[C@@H]2OO1 (relative stereo) | > 10 µM | > 10 µM
